Converted amounts (≈) assume the structure as drawn. “And” between values parts separate entries of the source, which are not always exact repeats. Equal entries are not always repeated. Where two headings read alike, the source gives them in different places.
Experiments:
Vero cells = test: Cytotoxicity effect on Vero cells (MTS-PMS assay); format: cell-based, African green monkey; conditions: Chlorocebus sabaeus, read-out: EC50 against Vero cells
Protocol: Vero cells were harvested by trypsinization when it reached 80–90% confluence. A volume of 100 μl Vero cells (6 x 10^4 cells/ml) in GM was cultured in triplicate wells of a 96-well plate and incubated for 24 hours.
MTS solution was prepared (2 mg/ml) by dissolving the powder in PBS. Exposure to light was avoided during the preparation. PMS (0.92 mg/ml) was similarly prepared in PBS and both solutions were stored at -20 °C. A volume of 20 μl of MTS solution was added into each well and the cells were incubated for one hour in a CO2 incubator [23, 24]. The absorbance (abs) was then measured at 490 nm using a microplate reader (Thermo Scientific Multiskan®Spectrum, USA). The percentage of cell viability was calculated using the following formula [25, 26]. The graphs were plotted and analyses their statistical data using Prism 5.0 (GraphPad Software Inc., CA USA) (S1 Dataset and S3 Dataset).
%ofcellviability=Opticaldensity(OD)oftreatedcell/Opticaldensity(OD)ofuntreatedcell(cellonly)

[1] = test system: T. gondii tachyzoites RH strain; test: Treatment of T. gondii-infected Vero cells (MTS-PMS assay); format: cell-based, Toxoplasma gondii; conditions: for EC50: Toxoplasma gondii, read-out: EC50 against T. gondii; for Selectivity Index (SI): Vero Cell (EC50)/T. gondii EC50
Protocol: Vero cells were harvested by trypsinization when it reached 80–90% confluence. A volume of 100 μl diluted Vero cells of (6 x 10^4 cells/ml) in GM was cultured in triplicate wells of a 96-well plate and incubated for 24 hours. Then, 100 μl of tachyzoites (3 x 10^5 /ml) in GM2 (comprising DMEM, 0.5% PS and 2% FBS) were added into the Vero cell-seeded wells. A volume of 100 ul the above medium was added to the negative control well and the plate was incubated for six hours. Subsequently, the wells were washed twice with WM to remove non-adherent parasites. A volume of 100 μl of GM2 was added and again incubated for 18 hours. […] The negative control well contained 100 μl Vero cells and PBS in control wells for NCI compounds.
The percent cell viability was proportional to the mortality of T. gondii. The graphs were plotted and analyses their statistical data using Prism 5.0 (GraphPad Software Inc., CA USA) (S2 Dataset and S4 Dataset). […] Selectivity refers to the mean of the EC50 value for Vero cells relative to the mean of the EC50 value of the T. gondii. A P value of less than 0.05 was considered statistically significant and all data points represent the mean of three independent experiments. SI (selectivity index) measures the strength of inhibition against the Vero cells and the T. gondii.
SelectivityIndex(SI)=VeroCell(EC50)/T.gondiiEC50

[2] = T. gondii-infected Vero cells, 24 hours treatment, MTS-PMS, molar value in brackets
[3] = T. gondii-infected Vero cells, 24 hours treatment, MTS-PMS

| SMILES | EC50 (Vero cells; 24 hours treatment, MTS-PMS) | EC50 [1, 2] | EC50 [1, 3] | Selectivity Index (SI) [1] | EC50 (Vero cells; 24 h) | EC50 ([1]; Vero, 24 h) | EC50 against T. gondii [1, 3] |
| --- | --- | --- | --- | --- | --- | --- | --- |
| O=c1[nH]cc(F)c(=O)[nH]1 [5-Fluorouracil, 5-fluorouracil, reference compound] | 9.72 µg/mL (≈ 74.7 µM) | – | – | – | – | – | – |
| NCCN1CCNCC1 [NSC38968, 2-(piperazin-1-yl)ethan-1-amine] | 21.5 µg/mL (≈ 166 µM) | 37 µM | 4.82 µg/mL | 4.5 | – | – | – |
| CCOC1CCc2c(C)nc(N)nc2S1 (stereo not shown) [NSC77468, 7-ethoxy-4-methyl-6,7-dihydro-5H-thiopyrano[2,3-d]pyrimidin-2-amine] | 47.8 µg/mL (≈ 212 µM) | 8.5 µM | 1.92 µg/mL | 25 | – | – | – |
| NS(=O)(=O)c1ccc(Cl)cc1[N+](=O)[O-] [NSC81213, 4-chloro-2-nitrobenzene-1-sulfonamide] | 24.6 µg/mL (≈ 104 µM) | 20 µM | 4.75 µg/mL | 5.2 | – | – | – |
| C1CC2CCNC3CCNC(C1)N23 (stereo not shown) [NSC81462, dodecahydro-1,4,9b-triazaphenalene] | – | – | – | 12.0 | 39 µg/mL (≈ 215 µM) | 3.24 µg/mL and 17.8 µM | – |
| CC1=C(C(N)=O)S(=O)(=O)c2ccccc21 [NSC108972, 3-methyl-1,1-dioxo-1 H -1-benzothiophene-2-carboxamide] | 28 µg/mL (≈ 126 µM) | 32 µM | 7.17 µg/mL | 3.9 | – | – | – |
| COc1ccccc1N1C(=O)CC(Sc2cccc(N)c2)C1=O (stereo not shown) [NSC153391, 3-[(3-aminophenyl)sulfanyl]-1-(2-methoxyphenyl)pyrrolidine-2,5-dione] | 24.7 µg/mL (≈ 75.3 µM) | – | – | – | – | – | Inactive |
| Nc1ccc(C(=O)c2cccs2)cn1 [NSC343344, (6-aminopyridin-3-yl)(thiophen-2-yl)methanone] | – | – | – | – | 29.6 µg/mL (≈ 145 µM) | – | Inactive |
| Nc1cc(Cl)ccc1N1C(=O)CCC1=O [NSC660301, 1-(2-amino-4-chlorophenyl)pyrrolidine-2,5-dione] | 22.3 µg/mL (≈ 99.2 µM) | 15 µM | 3.43 µg/mL | 6.5 | – | – | – |

Reference: paper PMC7244133, “Identification of potential dual -targets anti- toxoplasma gondii compounds through structure-based virtual screening and in-vitro studies” (PLoS ONE, 2020)
